We go through two compounds from patent publication US20220373534A1, “HUMAN NASOPHARYNGEAL CARCINOMA CELLS DERIVED FROM PATIENT DERIVED XENOGRAFT AND USES THEREOF” (Chang Gung Memorial Hospital, Linkou, priority 2021, published 2022).

The assay concerns NPC PDX-B13. In words: In vivo study of tumor volume in the NPC PDX-B13 mouse model. To be noted: week 6, read from FIG. 4. On the set-up: species or system NOD/SCID mice.

Description: NPC cell lines, C666-1 (EBV positive) and HK-1 (EBV negative), were maintained in RPMI containing 10% fetal bovine serum (FBS). A cell growth assay and animal studies were conducted as described by CL Hsu et al (“Application of a Patient-Derived Xenograft Model in Cytolytic Viral Activation Therapy for Nasopharyngeal Carcinoma.” Oncotarget 6, no. 31 (2015): 31323-34).
PDX models were generated as follows: NPC tumor samples were obtained from patients with local recurrence or metastasis undergoing biopsy or surgical resection. Each sample was immediately cut into smaller pieces of approximately 3-5 mm in diameter and subcutaneously implanted into the flank regions of anesthetized NOD/SCID mice. The xenograft was excised and reimplanted in small pieces into the next passage after the tumor reached 1-2 cm in diameter.

With `CN(C)C/C=C/C(=O)Nc1cc2c(Nc3ccc(F)c(Cl)c3)ncnc2cc1O[C@H]1CCOC1` [AFA, Afatinib], the “inhibit PDX-B13 tumor growth (reduce tumor volume)” value is “approximately 30%”.

Consider `CC(=O)c1c(C)c2cnc(Nc3ccc(N4CCNCC4)cn3)nc2n(C2CCCC2)c1=O` [PAL, Palbociclib], for which the “inhibit PDX-B13 tumor growth (reduce tumor volume)” value is reported as approximately 70%.
